Experimental data published in patent publication US20250222011A1, “DRUG TARGET FOR INHIBITING TUMOR, USE, AND ORAL DRUG” (CHI BIOTECH CO., LTD., priority 2024, published 2025).

Tests used:
Experiment in all cases: CESTA-WB (cellular thermal shift assay-Western blotting), H1299 cell lysate
Assay type in all cases: binding
Conditions in all cases: ATCA 10 nM to 10 mM, 55° C. for 3 min, FIG. 1
EIF2S1 = biological target: T1, EIF2S1 (Homo sapiens, UniProt P05198)
T1 construct: endogenous in cells; host or cells: H1299
Description: (§1) CESTA-WB experiment: H1299 cells were plated and cultured in a 15 cm dish, and when a cell density reached about 90% to 100%, the medium was aspirated; the cells were washed twice with PBS, and 2 mL of Lysis Buffer (RB Buffer, 10% N-Dodecyl-β-D-maltoside, and 1× protease inhibitor) was added to each dish and placed flatly on ice to allow lysis for 30 min, and a cell lysate was collected and centrifuged at 17,000 g, 4° C. for 10 min; a resulting supernatant was quantified using a BCA kit. 45 μL of a whole protein was added in a PCR tube, ATCA was added to final concentrations of 10 mM, 1 mM, 100 μM, 10 μM, 1 μM, 100 nM, and 10 nM, respectively, and allowed to stand at 25° C. for 30 min to allow the ATCA to fully interact with the whole protein; while another two tubes without ATCA were taken as controls. The experimental group was treated at 55° C. for 3 min, while one tube in the control group was treated at 37° C. for 3 min, and the other tube was treated at 50° C. for 3 min; centrifugation was conducted at 17,000×g for 10 min at 4° C. to remove denatured proteins. The supernatant was transferred into a new PCR tube, and 5 μg of the supernatant was added into 5×SDS Loading Buffer to allow denaturation in a 100° C. water bath; the Western Blotting was conducted to quantify EEF2, EIF2S1, B-actin, and Vinculin proteins.
(§2) Western Blotting experiment: the sample and molecular weight standard of pre-stained protein were loaded onto an SDS-PAGE gel (10 cmx 10 cm) to allow electrophoresis at 100 V for 40 min. The proteins in SDS-PAGE were transferred to nitrocellulose membrane at 100 V, 230 mA within 1 h. After transfer, the nitrocellulose membrane was washed with 25 mL of TBS for 5 min at room temperature. The nitrocellulose membrane was placed in 25 mL of blocking buffer (TBST, 5% skim milk) and incubated at room temperature for 1 h. The membrane was washed three times with 15 mL TBST, 5 min each. […]

EEF2 = biological target: T2, EEF2 (Homo sapiens, UniProt P13639)
T2 construct: a cell lysate was collected and centrifuged at 17,000 g; endogenous in cells; host or cells: H1299
Description: as §1, §2

Vinculin = biological target: T3, Vinculin (Homo sapiens, UniProt P18206)
T3 construct: endogenous in cells; host or cells: H1299
T3 sequence (P18206 1-1066 isoform P18206-2): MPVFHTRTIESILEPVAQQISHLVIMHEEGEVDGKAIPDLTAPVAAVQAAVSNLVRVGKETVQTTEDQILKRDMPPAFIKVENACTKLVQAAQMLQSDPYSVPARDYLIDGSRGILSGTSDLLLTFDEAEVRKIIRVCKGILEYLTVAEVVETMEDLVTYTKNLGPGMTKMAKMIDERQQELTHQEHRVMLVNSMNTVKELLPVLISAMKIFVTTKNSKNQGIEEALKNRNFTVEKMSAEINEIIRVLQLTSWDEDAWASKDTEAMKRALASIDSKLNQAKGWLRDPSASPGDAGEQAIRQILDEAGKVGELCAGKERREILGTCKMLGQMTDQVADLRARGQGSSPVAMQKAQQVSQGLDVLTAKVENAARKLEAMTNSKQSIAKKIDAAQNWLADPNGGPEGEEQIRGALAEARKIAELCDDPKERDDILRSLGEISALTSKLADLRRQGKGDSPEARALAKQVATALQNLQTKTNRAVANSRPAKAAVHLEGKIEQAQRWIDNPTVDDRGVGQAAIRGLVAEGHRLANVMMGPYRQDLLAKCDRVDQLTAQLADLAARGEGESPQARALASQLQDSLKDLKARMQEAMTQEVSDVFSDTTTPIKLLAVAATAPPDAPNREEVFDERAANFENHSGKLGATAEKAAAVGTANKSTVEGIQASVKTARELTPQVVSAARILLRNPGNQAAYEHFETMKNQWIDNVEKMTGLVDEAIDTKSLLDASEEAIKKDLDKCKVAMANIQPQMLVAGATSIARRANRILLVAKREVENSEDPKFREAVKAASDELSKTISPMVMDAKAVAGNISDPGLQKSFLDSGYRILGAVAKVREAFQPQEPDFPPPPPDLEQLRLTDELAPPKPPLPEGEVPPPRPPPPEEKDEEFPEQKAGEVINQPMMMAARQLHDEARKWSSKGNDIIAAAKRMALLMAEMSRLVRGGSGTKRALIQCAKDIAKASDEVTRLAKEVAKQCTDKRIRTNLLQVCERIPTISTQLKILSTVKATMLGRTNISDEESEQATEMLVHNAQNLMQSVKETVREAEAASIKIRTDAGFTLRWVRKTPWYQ
Description: as §1, §2

T1 sequence (P05198 whole entry): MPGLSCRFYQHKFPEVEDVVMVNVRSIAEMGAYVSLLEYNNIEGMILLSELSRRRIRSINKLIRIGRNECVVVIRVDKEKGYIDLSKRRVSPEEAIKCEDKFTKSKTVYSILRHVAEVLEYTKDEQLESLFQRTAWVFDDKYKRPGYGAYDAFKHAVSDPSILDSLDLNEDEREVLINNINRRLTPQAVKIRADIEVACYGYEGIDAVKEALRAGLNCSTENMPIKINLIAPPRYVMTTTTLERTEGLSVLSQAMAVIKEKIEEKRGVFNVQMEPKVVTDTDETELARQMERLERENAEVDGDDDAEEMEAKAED

Q: Which “binding to target protein EIF2S1” value (EIF2S1) does the source give for `O=C(O)C1=CC(=C(c2ccc(O)c(C(=O)O)c2)c2ccc(O)c(C(=O)O)c2)C=CC1=O` [ATCA, aurintricarboxylic acid] here?
A: binds

Q: What about the “binding to non-target protein EEF2” value (EEF2) of the same compound?
A: did not bind

Q: What about the “binding to non-target protein Vinculin” value (Vinculin) of the same compound?
A: did not bind
